The source of these data is patent publication US11673894B2, “Imidazopyrimidines and triazolopyrimidines as A2A / A2B inhibitors” (Incyte Corporation, priority 2018, dated 2023).

In one test the target is Adenosine A2A receptor (Homo sapiens (Human), UniProt P29274). Nature of the test: A2A Tag-lite HTRF Assay. Particulars: Tag-lite Adenosine A2A labeled cells; A2A Receptor Red antagonist fluorescent ligand 12.5 nM; one-site competitive binding model; read-out: A2A_Ki. The source says:
The final concentration of DMSO was 1%.
On the technique in general: In TR-FRET formats the signal depends on donor and acceptor labels being close together.

Test [1] concerns the target human adenosine A2B receptor (Homo sapiens (Human), UniProt P29275). The experiment in a line: Adenosine A2B Receptor Cyclic AMP GS Assay. The settings on record: HEK-293 cells expressing human A2B receptor; agonist NECA at 12 nM; cAMP accumulation (FRET); read-out: A2B_cAMP_EC50. The class given is cell-based. The procedure:
Stably transfected HEK-293 cells expressing the human adenosine A2B receptor (Perkin Elmer) were maintained in MEM culture medium with 10% FBS and 100 μg/ml Geneticin (Life Technologies). 18 to 24 hours prior to assay, geneticin was removed from culture. The cisbio cAMP-GS Dynamic kit utilizing the FRET (Fluorescence Resonance Energy Transfer) technology was used to measure cAMP accumulation in the cells. Compounds of the present disclosure at an appropriate concentration were mixed with 10000 cells/well in white 96 well half area plates (Perkin Elmer) for 30 min at RT gently shaking. Agonist, NECA (R&D Technologies) at 12 nM was added to each well for 60 min at RT gently shaking. Detection reagents, d2-labeled cAMP (acceptor) and anti-cAMP cryptate (donor) were added to each well for 60 min at RT gently shaking. Plates were read on Pherastar (BMG Labtech), fluorescence ratio 665/620 was calculated and EC50 determination was performed by fitting the curve of percent of control versus the log of the compound concentration using GraphPad Prism.
On the technique in general: Changes in cAMP serve as a functional read-out for many G protein-coupled receptors.

Bounds are passed on as bounds.

Chain of Adenosine A2A receptor (P29274 whole entry): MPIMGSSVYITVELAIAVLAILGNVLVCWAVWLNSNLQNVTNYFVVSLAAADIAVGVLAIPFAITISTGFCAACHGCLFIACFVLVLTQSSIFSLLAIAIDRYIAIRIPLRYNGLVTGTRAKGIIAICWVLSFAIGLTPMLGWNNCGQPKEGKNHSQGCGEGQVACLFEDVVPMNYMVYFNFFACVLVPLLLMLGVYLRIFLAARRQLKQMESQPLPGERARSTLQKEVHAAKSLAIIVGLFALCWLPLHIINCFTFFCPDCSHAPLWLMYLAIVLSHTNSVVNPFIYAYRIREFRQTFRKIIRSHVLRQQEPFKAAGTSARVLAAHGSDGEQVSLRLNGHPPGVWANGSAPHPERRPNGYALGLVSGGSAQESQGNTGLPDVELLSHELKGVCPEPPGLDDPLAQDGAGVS
Chain of human adenosine A2B receptor (P29275 whole entry): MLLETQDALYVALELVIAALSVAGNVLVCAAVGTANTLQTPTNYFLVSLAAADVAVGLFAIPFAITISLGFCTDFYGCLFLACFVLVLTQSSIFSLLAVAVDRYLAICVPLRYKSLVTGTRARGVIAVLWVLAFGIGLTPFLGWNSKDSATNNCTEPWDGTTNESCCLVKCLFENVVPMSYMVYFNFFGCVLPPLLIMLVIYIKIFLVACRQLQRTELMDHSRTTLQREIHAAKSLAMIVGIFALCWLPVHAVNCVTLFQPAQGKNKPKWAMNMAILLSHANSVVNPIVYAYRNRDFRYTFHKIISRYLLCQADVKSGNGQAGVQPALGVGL

`CCNC(=O)c1cn2c(N)nc(-c3cccc(C#N)c3)c(-c3ccnn3C(C)C)c2n1` [Example 36, 5-Amino-7-(3-cyanophenyl)-N-ethyl-8-(1-isopropyl-1H-pyrazol-5-yl)imidazo[1,2-c]pyrimidine-2-carboxamide]: on Adenosine A2A receptor, the Ki is below 10 nM. For the same compound, in test [1], the EC50 is 10 to 100 nM.

Consider `CCCn1nccc1-c1c(-c2cccc(C#N)c2)nc(N)n2cc(C(=O)NCC)nc12` [Example 37, 5-Amino-7-(3-cyanophenyl)-N-ethyl-8-(1-propyl-1H-pyrazol-5-yl)imidazo[1,2-c]pyrimidine-2-carboxamide], for which, on Adenosine A2A receptor, the Ki was below 10 nM. For the same compound, the EC50 in test [1] is below 10 nM.

Regarding `CCNC(=O)c1cn2c(N)nc(-c3cccc(C#N)c3)c(-c3ccncn3)c2n1` [Example 38, 5-Amino-7-(3-cyanophenyl)-N-ethyl-8-(pyrimidin-4-yl)imidazo[1,2-c]pyrimidine-2-carboxamide], on Adenosine A2A receptor, the Ki is below 10 nM. Moreover, the EC50 in test [1] was in the range of 10 to 100 nM.

Turning to `CCNC(=O)c1cn2c(N)nc(-c3cccc(C#N)c3)c(-c3ccnc4c3OCCO4)c2n1` [Example 39, 5-Amino-7-(3-cyanophenyl)-8-(2,3-dihydro-[1,4]dioxino[2,3-b]pyridin-8-yl)-N-ethylimidazo[1,2-c]pyrimidine-2-carboxamide], the Ki at Adenosine A2A receptor is below 10 nM. For the same compound, the EC50 in test [1] lay in the range of 10 to 100 nM.

As to `CCNC(=O)c1cn2c(N)nc(-c3cccc(C#N)c3)c(C3CC3)c2n1` [Example 40, 5-Amino-7-(3-cyanophenyl)-8-cyclopropyl-N-ethylimidazo[1,2-c]pyrimidine-2-carboxamide], the Ki on Adenosine A2A receptor lay within 10 to 100 nM. The EC50 in test [1] is above 1000 nM.

Consider `N#Cc1cccc(-c2nc(N)n3nc(Cc4ccccn4)nc3c2-c2ccncn2)c1` [Example 41, 3-(5-Amino-2-(pyridin-2-ylmethyl)-8-(pyrimidin-4-yl)-[1,2,4]triazolo[1,5-c]pyrimidin-7-yl)benzonitrile], for which the Ki on Adenosine A2A receptor was below 10 nM. Also, the EC50 in test [1] is below 10 nM.

For the compound `CCn1nccc1-c1c(-c2cccc(C#N)c2)nc(N)n2nc(Cc3ccccn3)nc12` [Example 42, 3-(5-Amino-8-(1-ethyl-1H-pyrazol-5-yl)-2-(pyridin-2-ylmethyl)-[1,2,4]triazolo[1,5-c]pyrimidin-7-yl)benzonitrile], at Adenosine A2A receptor, the Ki is below 10 nM. Besides, the EC50 in test [1] is below 10 nM.

Consider `CCCn1nccc1-c1c(-c2cccc(C#N)c2)nc(N)n2nc(Cc3ccccn3)nc12` [Example 43, 3-(5-Amino-8-(1-propyl-1H-pyrazol-5-yl)-2-(pyridin-2-ylmethyl)-[1,2,4]triazolo[1,5-c]pyrimidin-7-yl)benzonitrile], for which the Ki on Adenosine A2A receptor is below 10 nM. In test [1], the EC50 was below 10 nM.

Turning to `N#Cc1cccc(-c2nc(N)n3nc(Cc4ccccn4)nc3c2-c2cccc3ncccc23)c1` [Example 44, 3-(5-Amino-2-(pyridin-2-ylmethyl)-8-(quinolin-5-yl)-[1,2,4]triazolo[1,5-c]pyrimidin-7-yl)benzonitrile], the Ki on Adenosine A2A receptor was below 10 nM. For the same compound, in test [1], the EC50 lay within 10 to 100 nM.

For `N#Cc1cccc(-c2nc(N)n3nc(C(O)c4ccccc4)nc3c2-c2ncncc2F)c1` (stereo not drawn) [Example 45, 3-(5-Amino-8-(5-fluoropyrimidin-4-yl)-2-(hydroxy(phenyl)methyl)-[1,2,4]triazolo[1,5-c]pyrimidin-7-yl)benzonitrile], on Adenosine A2A receptor, the Ki was below 10 nM. Further, the EC50 in test [1] was below 10 nM.

Consider `N#Cc1cccc(-c2nc(N)n3nc(Cc4ccccn4)nc3c2-c2ncncc2F)c1` [Example 46, 3-(5-Amino-8-(5-fluoropyrimidin-4-yl)-2-(pyridin-2-ylmethyl)-[1,2,4]triazolo[1,5-c]pyrimidin-7-yl)benzonitrile], for which the Ki at Adenosine A2A receptor is below 10 nM. In addition, in test [1], the EC50 is below 10 nM.

`N#Cc1cccc(-c2nc(N)n3nc(C(NCCO)c4ccccc4)nc3c2-c2ccncc2)c1` (stereo not drawn) [Example 47, 3-(5-Amino-2-((2-hydroxyethylamino)(phenyl)methyl)-8-(pyridin-4-yl)-[1,2,4]triazolo[1,5-c]pyrimidin-7-yl)benzonitrile]: at Adenosine A2A receptor, the Ki is below 10 nM. For the same compound, in test [1], the EC50 is below 10 nM.

As to `CCn1nccc1-c1c(-c2cccc(C#N)c2)nc(N)n2nc(CC3CCCCC3)nc12` [Example 48, 3-(5-Amino-2-(cyclohexylmethyl)-8-(1-ethyl-1H-pyrazol-5-yl)-[1,2,4]triazolo[1,5-c]pyrimidin-7-yl)benzonitrile], the Ki at Adenosine A2A receptor was below 10 nM. In test [1], the EC50 is 10 to 100 nM.

For the compound `N#Cc1cccc(-c2nc(N)n3nc(Cc4ccccc4F)nc3c2-c2ccncn2)c1` [Example 49, 3-(5-Amino-2-(2-fluorobenzyl)-8-(pyrimidin-4-yl)-[1,2,4]triazolo[1,5-c]pyrimidin-7-yl)benzonitrile], on Adenosine A2A receptor, the Ki is below 10 nM. The EC50 in test [1] is below 10 nM.

`N#Cc1cccc(-c2nc(N)n3nc(C(O)c4ccccc4F)nc3c2-c2ccncn2)c1` (stereo not drawn) [Example 50, 3-(5-Amino-2-((2-fluorophenyl)(hydroxy)methyl)-8-(pyrimidin-4-yl)-[1,2,4]triazolo[1,5-c]pyrimidin-7-yl)benzonitrile]: the Ki at Adenosine A2A receptor was below 10 nM. The EC50 in test [1] is below 10 nM.

Take `Cc1cccc(Cc2nc3c(-c4ccncn4)c(-c4cccc(C#N)c4)nc(N)n3n2)n1` [Example 51, 3-(5-Amino-2-((6-methylpyridin-2-yl)methyl)-8-(pyrimidin-4-yl)-[1,2,4]triazolo[1,5-c]pyrimidin-7-yl)benzonitrile]: the Ki at Adenosine A2A receptor is below 10 nM. For the same compound, the EC50 in test [1] was in the range of 10 to 100 nM.

Regarding `CCn1nccc1-c1c(-c2cccc(C#N)c2)nc(N)n2nc(Cc3ncccc3F)nc12` [Example 52, 3-(5-Amino-8-(1-ethyl-1H-pyrazol-5-yl)-2-((3-fluoropyridin-2-yl)methyl)-[1,2,4]triazolo[1,5-c]pyrimidin-7-yl)benzonitrile], at Adenosine A2A receptor, the Ki was below 10 nM. For the same compound, the EC50 in test [1] was below 10 nM.

Turning to `CCn1nccc1-c1c(-c2cccc(C#N)c2)nc(N)n2nc(Cc3ncccc3OC)nc12` [Example 53, 3-(5-Amino-8-(1-ethyl-1H-pyrazol-5-yl)-2-((3-methoxypyridin-2-yl)methyl)-[1,2,4]triazolo[1,5-c]pyrimidin-7-yl)benzonitrile], the Ki at Adenosine A2A receptor is below 10 nM. The EC50 in test [1] was 10 to 100 nM.

For `Cn1cc(-c2ccccc2Cc2nc3c(-c4ccncn4)c(-c4cccc(C#N)c4)nc(N)n3n2)cn1` [Example 54, 3-(5-Amino-2-(2-(1-methyl-1H-pyrazol-4-yl)benzyl)-8-(pyrimidin-4-yl)-[1,2,4]triazolo[1,5-c]pyrimidin-7-yl)benzonitrile], on Adenosine A2A receptor, the Ki was below 10 nM. Besides, in test [1], the EC50 was below 10 nM.

Regarding `CCn1nccc1-c1c(-c2cccc(C#N)c2)nc(N)n2nc(Cc3noc4ccccc34)nc12` [Example 55, 3-(5-Amino-2-(benzo[d]isoxazol-3-ylmethyl)-8-(1-ethyl-1H-pyrazol-5-yl)-[1,2,4]triazolo[1,5-c]pyrimidin-7-yl)benzonitrile], the Ki on Adenosine A2A receptor is below 10 nM. For the same compound, in test [1], the EC50 was below 10 nM.

For the compound `CCn1nccc1-c1c(-c2cccc(C#N)c2)nc(N)n2nc(Cc3nn(C)c4ccccc34)nc12` [Example 56, 3-(5-Amino-8-(1-ethyl-1H-pyrazol-5-yl)-2-((1-methyl-1H-indazol-3-yl)methyl)-[1,2,4]triazolo[1,5-c]pyrimidin-7-yl)benzonitrile], on Adenosine A2A receptor, the Ki was below 10 nM. Moreover, the EC50 in test [1] lay within 10 to 100 nM.
